According to patent US20060286173A1, “Drug delivery system for sub-tenon s capsule adminstration of fine grains” (priority 2003, published 2006):

Assay: In vitro drug release test
Type: physicochemical
Conditions: 0.1 M phosphate buffer pH 7.4, 37° C.
Procedure: This mixture was placed in a glass vessel, and thereto was added 98.5 mL of 0.1 M phosphate buffer (pH 7.4). The entire mixture was shaken in a water bath at 37° C., and the in vitro drug release test was started. […] As a control, the powder of each drug in the same amount was charged into the chamber described above, and the release test was conducted in the same manner.
2) On day 1, 2, 6, 14, 29 after starting the test, the buffer was sampled in its entirety, which was analyzed using high performance liquid chromatography. Also, after the sampling, 98.5 mL of 0.1 M phosphate buffer (pH 7.4) was freshly added, and the release test was continued.

Compound: CC1(C)O[C@@H]2C[C@H]3[C@@H]4C[C@H](F)C5=CC(=O)C=C[C@]5(C)[C@@]4(F)[C@@H](O)C[C@]3(C)[C@]2(C(=O)CO)O1 [Fluocinolone acetonide powder, fluocinolone acetonide]
- In vitro drug release rate (%) (Day 1): 57.6%
- In vitro drug release rate (%) (Day 2): 73.4%
